Assay results as given in a melting point compilation (Tetko et al.; mined from patent text by program, amines drawn as free bases though some values may be those of a salt).

SMILES | melting point
O=C(O)c1cn(C2CC2)c2nc(N3Cc4cccc(Cl)c4C3)c(F)cc2c1=O | > 300 °C
Cc1cc(-c2cc(C(F)(F)F)nn2-c2ccc(S(N)(=O)=O)c(Cl)c2)ccc1-c1cscn1 | 113 to 115 °C
Cc1ccc2c(c1)CC1(CCC(=O)CC1)C2 | 68 to 70 °C
COc1ccc(-c2cc(=O)c3c(O)cc(OCC4=COC(C)(C)O4)cc3o2)cc1OC(=O)C(C)(C)C | 204 to 205 °C
CCN(CC)Cc1cccc(-c2cc(OCc3ccccc3)c3cc(OC)ccc3n2)c1 | 89.2 to 89.5 °C
CSC1Cc2cc(Cl)ccc2C1=O (stereo not drawn) | 90 °C
CC(C)=Cc1cn(-c2c(Cl)cc(C(F)(F)F)cc2Cl)nc1C#N | 72 to 74 °C
O=C(c1cc(-c2cccc(Cl)c2)c(=O)n2c1-c1c(Cl)cccc1C2)N1CCC[C@@H]1CO | 228 to 230 °C
COc1cc2c(cc1OC)C(C(C)C)C(=O)CC2 (stereo not drawn) | 77 to 79 °C
C=CCNc1nc(NCC=C)c2cc(Cl)ccc2n1 | 78 to 79 °C
Nc1scc(CN2CCN(c3ccccc3)CC2)c1C(=O)c1ccc(Cl)cc1 | 112 °C
Cc1cc(-c2ccc(C(F)(F)F)cc2)nc(-c2cccc(-c3cccc(S(N)(=O)=O)c3)c2)n1 | 224 °C
CCC(=O)NCc1ccc(CN2CCN(c3ncccn3)CC2)cc1 | 103 to 105 °C
Cc1onc(NS(=O)(=O)c2cccs2)c1Br | 156 to 158 °C
CCn1c(-c2ccc(-n3ccnc3)cc2)cnc1[C@H](Cc1ccccn1)N(C=O)c1cc2cc(C(F)(F)F)ccc2o1 | 85 to 89 °C
O=C(NC1=CCN(CCc2ccccc2)CC1)c1ccccc1 | 115 to 117 °C
N=C(Nc1ccc(CCNCc2cccc(F)c2)cc1)c1cccs1 | 130 to 131 °C
COC(=O)C#CCCc1c(C)c(OC)c(C)c(C)c1OC | 71 to 72 °C
CCCCN1CCCC1CNC(=O)c1cc(Cl)cc2c1SCCN2C (stereo not drawn) | 108 to 109 °C
O=C1OC(c2ccccc2)CN1Sc1ccc(Cl)cc1 (stereo not drawn) | 98 to 99 °C
Cc1cc(C2CCCC2)c(O)c(C2CCCC2)c1 | 78 °C
Nc1ncncc1Oc1ccccc1 | 118 to 120 °C
Nc1ncc(Cl)c(Cl)c1Cl | 160 to 162 °C

Continued, values first:

melting point | SMILES
75 to 77 °C | Cc1ccc(S(=O)(=O)OC2CC3(C)C=CC(C)(C2)O3)cc1 (stereo not drawn)
110 to 112 °C | O=c1ccn(CCO)c(C(O)c2ccc3ccccc3c2)c1OCc1ccccc1 (stereo not drawn)
100 to 101 °C | COC(=O)c1ccccc1C(=O)NC(C)(C)C#N
134 to 137 °C | CC(=O)OC(=O)c1ccc(N2C(=O)NC(N(CC(C)C)C(C)=O)NC2=O)cc1
124 to 126 °C | NC(=O)C(c1ccccc1Cl)N1CCc2sccc2C1 (stereo not drawn)
105 to 108 °C | CCOc1cc2ncc(C#N)c(Nc3ccc(F)cc3C)c2cc1OCC
200 °C | COC(=O)Cc1c(C)nc(SC)nc1O
189 to 191 °C | NC(=O)N1C(=O)Cc2cc(N)ccc21
145 to 146 °C | Cc1cc(C(C)N(O)C(N)=O)c(C)o1 (stereo not drawn)
202 °C | O=C(Nc1ccccc1)Nc1onc2c1CCC2
68 to 70 °C | Cc1csc(C)c1N(N)C(=O)CN
168 to 171 °C | CCCc1c2nc(C(=O)OCC)ccc2cc2c(=O)cc(C(=O)OCC)oc12
120 °C | CNC(=O)C(=N[C@@H](C)c1ccccc1)C(C)(C)C
222 to 225 °C | CC(=O)Nc1ccc(C2=NC(C)(C)C(c3ccncc3)C2)cc1 (stereo not drawn)
150 to 151 °C | C=Cn1cc(C(=O)OCC)c(=O)c2cc(F)c(Cl)nc21
73 to 75 °C | CCOC(=O)C(C)C(=O)Nc1cccc(S)c1 (stereo not drawn)
140 to 143 °C | CCC(=O)NCCC1=CCc2cc(F)c(OC)cc21
187 to 190 °C | CNc1ccc(C(=O)NCCC(=O)O)cc1[N+](=O)[O-]
115 to 117 °C | CCC(=O)N1CCCC2=C1CCc1cc(Cl)ccc12
77 to 78 °C | CCCCCC(=O)NC(C(C)=O)c1ccccc1 (stereo not drawn)
145 to 148 °C | COC(=O)c1ccc(-c2cccc(N)c2)cc1
76 to 78 °C | COC(=O)c1ccc(C#N)s1
225 to 227 °C | Cc1ccc(OCc2nc(N)c3nccnc3n2)cc1
107 to 112 °C | COC(=O)Nc1c(Cl)ccc(Br)c1F
190 °C | Cc1[nH]c(=S)n(Nc2cccc(Br)c2)c1-c1ccccc1
104 to 105 °C | Cc1nc(CC2CCN(c3ccc(F)cc3)CC2)nc(C(=O)NCC(=O)O)c1O
148 to 150 °C | COC(=O)c1c(Cl)cc(Cl)cc1NC(=O)CSc1ccc(NC(=S)Nc2cccc(Cl)c2)cc1
110 to 120 °C | COC(=O)c1cc(N)c(Cl)c(N)c1
101 to 104 °C | O=C(O)CCNC(=O)c1ccc(-c2ccccc2OC2OC(CO)C(O)C(O)C2O)cc1 (stereo not drawn)
178 to 180 °C | COc1cc(C)nc(NC(=O)NS(=O)(=O)c2cccc3nc(C)sc23)n1
